For 17 compounds, drug sensitivity score results are on record in the supplement of paper PMC8633005.

Holding throughout (assay): drug sensitivity score (DSS) (DSS (unitless, 0-50 scale)); higher = more sensitive (stronger viability inhibition); extreme values may be limits of the assay
Holding throughout (conditions): 72 h; culture: 2D

The test system of assay [1] is Bowes. Put shortly:
(§1)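 A 527-compound oncology library was screened in 384-well plates against melanoma cell lines and patient-derived melanoma cultures grown in 2D, the cultures at 1000–1500 cells per well. Each compound, in DMSO or water, was applied at five concentrations over a 10,000-fold range and incubated for 72 h at 37 °C before CellTiter-Glo luminescence readout of viability. A drug sensitivity score, a modified area-under-curve measure, was calculated from curves fitted in the in-house Breeze software.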

In assay [2] the test system is FM-MEL-2. The method in brief:
as §1

Assay [3] deals with FM-MEL-3. Put shortly:
as §1

Assay [4] has as its system FM-MEL-6. Put shortly: as §1
For assay [5], the system named is SK-MEL-28. Put shortly:
as §1

Assay [6] deals with SK-MEL-2. The method in brief:
as §1

In assay [7] the test system is WM165. The method in brief:
as §1

The test system of assay [8] is WM852. The method in brief: as §1

Structures are written as SMILES.

On to `CCC(C)n1ncn(-c2ccc(N3CCN(c4ccc(OCC5COC(Cn6cncn6)(c6ccc(Cl)cc6Cl)O5)cc4)CC3)cc2)c1=O` (stereo unspecified) [Itraconazole], for which the drug sensitivity score in assay [1] was 4.7; in assay [2], 1.4; in assay [3], 2.8; in assay [4] it was 0; in assay [5], 0; in assay [6], 0. In addition, the drug sensitivity score in assay [7] came out at 0; in assay [8] it was 0.9.

For the compound `N#Cc1ccnc(N2C(=O)CC[C@H]2C(=O)N(c2cncc(F)c2)[C@H](C(=O)NC2CC(F)(F)C2)c2ccccc2Cl)c1` [Ivosidenib], the drug sensitivity score came out at 0 in assay [1]; 0 in assay [2]; 0 in assay [3]; 0.3 in assay [4]; 0 in assay [5]; 0 in assay [6]. Also, the drug sensitivity score in assay [7] and in assay [8] was 0 each time.

Regarding `C/C(=C\c1csc(C)n1)[C@@H]1C[C@@H]2O[C@]2(C)CCC[C@H](C)[C@H](O)[C@@H](C)C(=O)C(C)(C)[C@@H](O)CC(=O)N1` [Ixabepilone], the drug sensitivity score is 8.5 in assay [1]; 0.8 in assay [2]; 5 in assay [3]; 3.7 in assay [4]; 2.3 in assay [5]; 2.9 in assay [6]. Further, the drug sensitivity score in assay [7] amounted to 3.6; in assay [8], 6.1.

For `CC(C)C[C@H](NC(=O)CNC(=O)c1cc(Cl)ccc1Cl)B(O)O` [Ixazomib], the drug sensitivity score is 8.8 in assay [1]; 4.9 in assay [2]; 13.6 in assay [3]; 17 in assay [4]; 9.6 in assay [5]; 11.2 in assay [6]. Also, the drug sensitivity score stood at 10.4 in assay [7] and 0.9 in assay [8].

For `Nc1cc(COc2c(Cl)cc(C[C@H](N)C(=O)O)cc2Cl)c2oc(-c3ccccc3)nc2c1` [JPH203], the drug sensitivity score was determined as 0 in assay [1]; 0 in assay [2]; 0 in assay [3]; 0.6 in assay [4]; 0 in assay [5]; 0 in assay [6]. Moreover, the drug sensitivity score in assay [7] and in assay [8] was 0 in each case.

In the case of `CS(=O)(=O)CCNCc1ccc(-c2ccc3ncnc(Nc4ccc(OCc5cccc(F)c5)c(Cl)c4)c3c2)o1` [Lapatinib], the drug sensitivity score in assay [1] came to 1.1; in assay [2] it was 0.6; in assay [3], 0.2; in assay [4] it was 0.1; in assay [5], 0; in assay [6] it was 0. Also, the drug sensitivity score in assay [7] and in assay [8] was 0 in each case.

For `O=C(Nc1cnn2ccc(N3CCC[C@@H]3c3cc(F)ccc3F)nc12)N1CC[C@H](O)C1` [Larotrectinib], the drug sensitivity score in assay [1], in assay [2], in assay [3], in assay [4], in assay [5] and in assay [6] was 0 throughout. In addition, the drug sensitivity score in assay [7] and in assay [8] was 0 in each case.

For `Oc1ccc2c(c1)CC[C@H](c1ccccc1)[C@@H]2c1ccc(OCCN2CCCC2)cc1` [Lasofoxifene], the drug sensitivity score in assay [1], in assay [2], in assay [3], in assay [4], in assay [5] and in assay [6] was 0 throughout. Besides, the drug sensitivity score in assay [7] and in assay [8] was 0 throughout.

Consider `Nc1cccc2c1CN(C1CCC(=O)NC1=O)C2=O` (stereo unspecified) [Lenalidomide], for which the drug sensitivity score in assay [1], in assay [2], in assay [3], in assay [4], in assay [5] and in assay [6] was 0 throughout. The drug sensitivity score in assay [7] and in assay [8] was 0 each time.

Take `COc1cc2nccc(Oc3ccc(NC(=O)NC4CC4)c(Cl)c3)c2cc1C(N)=O` [Lenvatinib]: the drug sensitivity score is 1.3 in assay [1]; 0 in assay [2]; 0 in assay [3]; 0 in assay [4]; 0 in assay [5]; 0 in assay [6]. The drug sensitivity score in assay [7] and in assay [8] was 0 in each case.

For `N#Cc1ccc(C(c2ccc(C#N)cc2)n2cncn2)cc1` [Letrozole], the drug sensitivity score in assay [1], in assay [2], in assay [3], in assay [4], in assay [5] and in assay [6] was 0 in each case. Besides, the drug sensitivity score in assay [7] and in assay [8] was 0 in each case.

In the case of `Cc1ccc(F)c(NC(=O)Nc2ccc(-c3cccc4[nH]nc(N)c34)cc2)c1` [Linifanib], the drug sensitivity score was determined as 2.2 in assay [1]; 0.1 in assay [2]; 0 in assay [3]; 0 in assay [4]; 0 in assay [5]; 0 in assay [6]. Moreover, the drug sensitivity score in assay [7] and in assay [8] was 0 throughout.

Take `C[C@]1(O)C[C@@H](c2nc(-c3ccc4ccc(-c5ccccc5)nc4c3)c3c(N)nccn32)C1` [Linsitinib]: the drug sensitivity score in assay [1] was found to be 0; in assay [2], 3.6; in assay [3] it was 4.8; in assay [4], 0.9; in assay [5], 0; in assay [6] it was 0. Further, the drug sensitivity score came to 1.3 in assay [7] and 1 in assay [8].

For `CCNCCS(=O)(=O)NC[C@@]1(c2ccccc2)SC(NC(=O)C(C)(C)C)=NN1C(=O)C(C)(C)C` [Litronesib], the drug sensitivity score in assay [1] came to 18.8; in assay [2], 2.4; in assay [3], 8.6; in assay [4] it was 10.2; in assay [5] it was 2.2; in assay [6] it was 13.1. Moreover, the drug sensitivity score was 18.9 in assay [7] and 23.7 in assay [8].

As to `Nc1nc(OCc2cc(Br)cs2)c2[nH]cnc2n1` [Lomeguatrib], the drug sensitivity score in assay [1], in assay [2], in assay [3], in assay [4], in assay [5] and in assay [6] was 0 in each case. Besides, the drug sensitivity score in assay [7] and in assay [8] was 0 each time.

Take `NC(=O)N1CCC(CC(=O)N2CCC([C@H]3c4ncc(Br)cc4CCc4cc(Cl)cc(Br)c43)CC2)CC1` [Lonafarnib]: the drug sensitivity score in assay [1] worked out at 30.9; in assay [2], 9.4; in assay [3], 18.2; in assay [4], 8.1; in assay [5], 8.1; in assay [6], 5.3. For the same compound, the drug sensitivity score in assay [7] was 13; in assay [8], 12.1.

In the case of `Cc1c(F)cc(C(=O)NC2CC2)cc1-c1ccc(C(=O)NCC(C)(C)C)cn1` [Losmapimod], the drug sensitivity score was determined as 2.8 in assay [1]; 1.6 in assay [2]; 0.7 in assay [3]; 0 in assay [4]; 0 in assay [5]; 0 in assay [6]. For the same compound, the drug sensitivity score in assay [7] and in assay [8] was 0 throughout.
